Data taken from patent US20060099712A1, “Correlation of anti-cancer activity of dyes with redox potentials” (Eastman Kodak Company, priority 2004, published 2006).
Where “and” joins values, the source holds several entries; their conditions need not be identical. Equal values may be shown once. Read-outs that look alike come from different tables or passages of the source.

Columns and labels:
[1] = tested on: CV-1 Normal Monkey Kidney Epithelial; experiment: Clonogenic dye screening assay, CV-1 cells (IC50); assay type: cell-based, African green monkey; settings: for CV (IC50 in the CV-1 cell line): 3 hrs treatment, unit from method b117-118; for IC50: Primates
Excerpt: CX-1 is a cancerous human colon adenocarcinoma cell line. CV-1 is a non-cancerous control, which is a kidney epithelial cell line from an African green monkey. IC50 is the dye concentration at which 50% of the cells are killed. Selectivity or kill ratio is defined as the ratio of […] at IC50 for both CX-1 and CV-1. A ratio with a high number indicates a high selectivity.
The dyes were screened in two cell lines. CX-1 is a human colon adenocarcinoma cell line. CV-1 is a kidney epithelial cell line from an African green monkey. CV-1 was used as a reference because no normal human epithelial cell line is available for clonogenic assay.
In the initial screen, dyes were examined at six different concentrations to generate a dose response curve. An IC50 value, the concentration at which 50% of the cells are killed, was then calculated. Initially, a dye concentration of 1.0 μg/mL was the highest examined for the CX-1 cell line and 0.005 μg/mL was the lower limit. The corresponding limits on the CV-1 cell line were […].
The screening procedure used a response curve that was determined from eight dye concentrations. The upper and lower limits of CX-1 were 0.32 and 0.0015 μg/mL, respectively, and the corresponding revised limits on CV-1 were 3.2 and 0.025 μg/mL. The screening results were reported by assigning an IC50 value to each dye for the CV-1 and CX-1 cell lines. These values will be referred to herein simply as CV and CX. The most desirable result would be to have a dye that was highly toxic to carcinoma cells but nontoxic to ‘normal’ cells. One measure of this type of selectivity is the ratio of the IC50's in the normal cell line to that in the carcinoma line, CV/CX.
Compounds are screened via an in vitro assay. CV-1 and CX-1 cells are seeded into separate assay plates. The plates are treated with varying concentrations of test compounds, rinsed, and colonies allowed to grow. IC50's are determined and drugs evaluated based on their selectivity and toxicity. Assay Steps: • I. Seeding Cells • II. Weighing • III. Preparation of Solution • IV. Treatment • V. Rinsing and Feeding • VI. Fixing • VII. IC50 Determination I. Seeding Cells
The cells should be seeded 16-30 hours before treatment. The media for CV-1 cells is DME+5% calf serum +5% Nuserum. The media for CX-1 cells is RPMI/DME (50/50)+5% calf serum +5% Nuserum.
(c) number of cells based on 2000 CX-1 cells/well and 1000 CV-1 cells/well. NOTE: Always make enough cell suspension for 1 extra plate to allow for volume loss during transfers.
• (a) For CV-1: 256 ug/ml-256 ul of 1 mg/ml stock +744 ul DMSO • (b) For CX-1: 25.6 ug/ml-100 ul of 256 ug/ml+900 ul DMSO IV. Treatment • 1. Each plate is treated with 4 test compounds, one positive control and one negative control. • 2. Serial dilutions of the compounds are made in the following way:
2 multi-well pipetters are used. One is set for 10 ul and one for 200 ul. Each is equipped with 6 tips spaced such that they fit into the 6 rows of a plate. 390 ul of media is added to the first column of each plate. 10 ul each of 4 compound solutions, a positive and a negative control are taken up and put into the first column of wells. The 200 ul pipetter is then placed in the same wells, pipetted up and down 3 times and two 200 ul aliquots are moved to the next column of wells. This column is pipetted up and down 3 times and 400 ul moved to column 3, etc. The final 400 ul excess from column 8 is discarded.
• 3. Label the plates along the front, each row −1 compound. • 4. Incubate the plates at 37° C. for 3 hrs. V. Rinsing • 1. Prepare several bottles of CX-1 and CV-1 media. • 2. Check for precipitate in first column of each plate and note. • 3. Starting with the plates treated first, rinse several plates at a time by aspirating the treatments and refilling each well with 0.5-1.0 ml of the rinse media. Aspirate and refill 2 more times for a total of 3 rinses. • 4.

[2] = tested on: CX-1 Human Colon Carcinoma; experiment: Clonogenic dye screening assay, CX-1 cells (IC50); assay type: cell-based; settings: for CX (IC50 in the CX-1 cell line): 3 hrs treatment, unit from method b117-118; for CV/CX (selectivity, kill ratio): ratio of IC50 in normal CV-1 line to IC50 in carcinoma CX-1 line; for IC50: Homo sapiens
Summary of the method: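 Cells seeded 16-30 h ahead (2000 CX-1 or 1000 CV-1 per well), exposed to serially diluted dyes for 3 h at 37 °C, rinsed three times, then grown into colonies. Eight-point curves spanned 0.32-0.0015 μg/mL (CX-1) and 3.2-0.025 μg/mL (CV-1). IC50 is the concentration killing 50% of cells.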

[3] = CV-1, read-out: CV (IC50 in the CV-1 cell line)
[4] = CX-1, read-out: CX (IC50 in the CX-1 cell line)
[5] = CV-1, 3 hrs treatment, colonies after 7-10 days, unit from method, read-out: CV (IC50 in the CV-1 cell line)
[6] = CX-1, 3 hrs treatment, colonies after 7-10 days, unit from method, read-out: CX (IC50 in the CX-1 cell line)

Compound	CV (IC50 in the CV-1 cell line) ([1]; colonies after 7-10 days) [µg/mL]	CV/CX (selectivity, kill ratio) [2]	IC50 [1, 5] [µg/mL]	IC50 [2, 6] [µg/mL]	also measured
CCN1/C(=C/C(=C/c2oc3ccccc3[n+]2CC)SC)Sc2ccccc21.[I-] [Dye D-137]	3.0	100	–	–	CX (IC50 in the CX-1 cell line) ([2]; colonies after 7-10 days): 0.03 µg/mL
CC[n+]1c(/C=C/c2ccc(N(C)C)cc2)[te]c2ccc(C)cc21 [Dye D-156]	–	60	–	–	IC50 [1, 3]: 3 µg/mL; IC50 [2, 4]: 0.05 µg/mL
CC[n+]1c(/C=C/C=C2\SCCCN2C)sc2ccccc21 [Dye D-144]	–	100	3	0.03	–
CCN1/C(=C/C=C/c2oc3ccccc3[n+]2CC)Sc2cccc(-c3ccccc3)c21.[I-] [Dye D-106]	0.8	80	–	–	CX (IC50 in the CX-1 cell line) ([2]; colonies after 7-10 days): 0.01 µg/mL
CC[n+]1c(/C=C/C=C2\Sc3ccccc3N2C(C)C)oc2ccccc21 [Dye D-122]	–	80 and >80.0	0.4	< 0.005	IC50 ([1]; CV-1, Table XXI, oxathiacarbocyanine nitrogen substituents, CV-1 cells, read-out: CV): 0.4 µg/mL; IC50 ([2]; CX-1, Table XXI, oxathiacarbocyanine nitrogen substituents, CX-1 cells, read-out: CX): < 0.005 µg/mL; CV/C ([2]; Table XXI, selectivity ratio, value of 1 where dye inactive): >80.0
CCN1/C(=C/C(C)=C/c2sc3ccc4ccccc4c3[n+]2CC)Oc2ccc3ccccc3c21 [drawing 40|E|Me]	0.1	3.33 and 2.0	–	–	CX (IC50 in the CX-1 cell line) ([2]; colonies after 7-10 days): 0.03 µg/mL and 0.05 µg/mL
CC(=CC(C)=C1Sc2ccccc2N1C)c1sc2ccccc2[n+]1C [drawing 38|M|Me|H|Me]	0.5	2.5	–	–	CX (IC50 in the CX-1 cell line) ([2]; colonies after 7-10 days): 0.2 µg/mL
CCN1/C(=C/C=c2\s/c(=C\c3sc4ccccc4[n+]3CC)n(CCC(=O)O)c2=O)Sc2ccccc21 [Dye D-167]	–	100.0	10	–	–
CCC(/C=C1\Sc2ccc(Cl)cc2N1C)=C\c1oc2ccc(-c3ccccc3)cc2[n+]1C [Dye D-147]	–	160	8	0.05	–
CCN1/C(=C/C=C/c2oc3ccc(-c4ccccc4)cc3[n+]2CCOC(C)=O)Sc2ccccc21 [Dye D-153]	–	100	3	0.03	–
CCN1/C(=C/C=C/c2sc3ccccc3[n+]2CC)[Se]c2ccc(OC)cc21 [Dye D-134]	–	80	–	–	IC50 [1, 3]: 0.2 µg/mL; IC50 [2, 4]: 0.0025 µg/mL
CCN1/C(=C/C=C/c2oc3ccccc3[n+]2CC)Sc2ccc(O)cc21.[I-] [Dye D-128]	0.3	60	–	–	–
CN1/C(=C/c2ccc3ccc4ccccc4c3[n+]2C)Sc2ccccc21 [Dye D-130]	–	100	0.5	0.005	–
CCN1/C(=C\C=c2\s/c(=C/c3sc4ccccc4[n+]3CC)n(C)c2=O)Sc2ccccc21 [Dye D-111]	–	270 and 266.7	8	0.03	–
CCN1C(=O)/C(=C\C=C2/Oc3ccccc3N2CC)S/C1=N\c1sc2ccccc2[n+]1CC [Dye D-107]	–	60	3	0.05	–
CCN1/C(=C/C=C/c2sc3ccccc3[n+]2CC)[Se]c2ccc(Cl)cc21 [Dye D-135]	–	>200.0 and 200	–	–	IC50 [1, 3]: 1 µg/mL; IC50 [2, 4]: < 0.005 µg/mL; Selectivity ([2]; Table 1, cell line not given, values equal CV/CX of Table II): 200
